The source of these data is patent US20240270821A1, “GIP/GLP1/GCG TRI-RECEPTOR AGONISTS AND USES THEREOF” (priority 2023, published 2024).

Like-named read-outs stand apart in the source and are kept apart here. Starred links: 1 amine or outer side, 2 acyl side, 3 side chain; linkers in the order of their positions; H or OH if unused. Non-standard residues stand in square brackets, D forms with d. Residues, ends and D or L forms follow the SMILES beside them. Groups on a side chain read outwards from the residue. *: point of attachment. C20 diacid = O=C(O)CCCCCCCCCCCCCCCCCCC(=O)*; C18 diacid = O=C(O)CCCCCCCCCCCCCCCCC(=O)*; αMePhe(2-F) = C[C@](N)(Cc1ccccc1F)C(=O)O; γGlu = O=C(O)[C@H](CCC(=O)[*:2])N[*:1]; αMeY = C[C@](N)(Cc1ccc(O)cc1)C(=O)O; αMeF = C[C@](N)(Cc1ccccc1)C(=O)O; αMeL = CC(C)C[C@](C)(N)C(=O)O; αMeS = C[C@](N)(CO)C(=O)O; Orn = NCCC[C@H](N)C(=O)O; AEEA = NCCOCCOCC(=O)O; Aib = CC(C)(N)C(=O)O

Common to all, as to type: cell-based
Assay [1] deals with T1, hGIPR (Homo sapiens, UniProt P48546).
T1 sequence (P48546 22-466): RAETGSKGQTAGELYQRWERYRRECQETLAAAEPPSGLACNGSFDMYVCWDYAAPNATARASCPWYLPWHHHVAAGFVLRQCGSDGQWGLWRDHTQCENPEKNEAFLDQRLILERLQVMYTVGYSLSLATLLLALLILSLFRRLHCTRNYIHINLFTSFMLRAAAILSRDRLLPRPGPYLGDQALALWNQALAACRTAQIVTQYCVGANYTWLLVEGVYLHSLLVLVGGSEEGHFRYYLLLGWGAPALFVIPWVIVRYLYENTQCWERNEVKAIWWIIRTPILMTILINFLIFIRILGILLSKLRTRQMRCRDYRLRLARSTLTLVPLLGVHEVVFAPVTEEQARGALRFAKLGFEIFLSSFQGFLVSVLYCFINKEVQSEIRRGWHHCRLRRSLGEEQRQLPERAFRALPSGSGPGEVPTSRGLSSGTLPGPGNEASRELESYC
Briefly: Functional cAMP activity in the presence of 1% HSA. The conditions noted are these: read-out: cAMP Rel EC50, hGIPR.

The target in assay [2] is T2, hGLP-1R (Homo sapiens, UniProt P43220). As to the kind of experiment: Functional cAMP activity in the presence of 1% HSA. The conditions noted are these: read-out: cAMP Rel EC50, hGLP-1R.
T2 sequence (P43220 24-463): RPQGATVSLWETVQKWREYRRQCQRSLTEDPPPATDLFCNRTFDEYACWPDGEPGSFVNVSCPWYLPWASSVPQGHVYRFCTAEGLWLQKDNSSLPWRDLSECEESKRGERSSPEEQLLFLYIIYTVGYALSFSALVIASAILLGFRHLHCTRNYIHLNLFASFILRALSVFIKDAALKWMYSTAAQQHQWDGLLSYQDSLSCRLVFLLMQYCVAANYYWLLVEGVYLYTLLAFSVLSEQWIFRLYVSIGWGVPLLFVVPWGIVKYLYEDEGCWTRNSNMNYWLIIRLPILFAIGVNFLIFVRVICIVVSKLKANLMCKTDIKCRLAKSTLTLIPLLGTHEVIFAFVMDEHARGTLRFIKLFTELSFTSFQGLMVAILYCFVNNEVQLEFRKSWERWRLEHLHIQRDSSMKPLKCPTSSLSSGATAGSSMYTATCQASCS
A further assay has as its target human GcgR (Homo sapiens, UniProt P47871). As to the kind of experiment: Functional cAMP activity in the presence of 1% HSA. The conditions noted are these: read-out: cAMP Rel EC50, hGcgR.
The target in assay [3] is T1, hGIPR. Briefly: Functional cAMP activation in the presence of 0.1% casein (no HSA). The conditions noted are these: read-out: Relative cAMP EC50, hGIPR.
The target of assay [4] is T2, hGLP-1R. Described as above. The conditions noted are these: read-out: Relative cAMP EC50, hGLP-1R.
The next assay concerns the target hGcgR (Homo sapiens, UniProt P47871). Described as above. The conditions noted are these: read-out: Relative cAMP EC50, hGcgR.
Where [5] appears, read: in the presence of 0.1% casein (no HSA), geometric mean.

The term EC50 denotes the concentration needed to bring the measured effect to its halfway point.
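Throughout, for Relative cAMP EC50, hGIPR: intracellular cAMP rise after 30 min at 37 °C read by HTRF against a standard curve, scaled between buffer alone (0%) and top control ligand concentration (100%), four-parameter fit.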
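Throughout, for Relative cAMP EC50, hGLP-1R: intracellular cAMP rise after 30 min at 37 °C read by HTRF, normalized between buffer only (0%) and maximal control ligand (100%), four-parameter variable-slope fit.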
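Throughout, for Relative cAMP EC50, hGcgR: intracellular cAMP rise after 30 min at 37 °C, read by HTRF against a cAMP standard curve, scaled from buffer only (0%) to maximal control ligand response (100%).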

Sequence of hGcgR (P47871 26-477): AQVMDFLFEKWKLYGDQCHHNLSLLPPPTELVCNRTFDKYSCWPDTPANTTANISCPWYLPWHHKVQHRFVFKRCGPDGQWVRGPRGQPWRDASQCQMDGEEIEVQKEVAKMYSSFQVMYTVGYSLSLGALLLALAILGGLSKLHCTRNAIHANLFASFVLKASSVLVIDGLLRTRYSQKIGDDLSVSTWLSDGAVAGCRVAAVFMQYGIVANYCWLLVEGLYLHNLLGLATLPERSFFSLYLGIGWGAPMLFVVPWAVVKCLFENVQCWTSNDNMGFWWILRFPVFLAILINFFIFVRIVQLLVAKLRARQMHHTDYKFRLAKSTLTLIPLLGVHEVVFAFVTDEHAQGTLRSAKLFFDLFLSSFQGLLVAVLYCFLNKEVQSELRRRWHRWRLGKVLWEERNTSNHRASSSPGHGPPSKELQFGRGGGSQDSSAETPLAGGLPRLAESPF
Sequence of human GcgR (P47871 26-477): as above

With `CC[C@H](C)[C@H](NC(=O)[C@H](Cc1ccccc1)NC(=O)[C@H](C)NC(=O)C(C)(C)NC(=O)[C@H](CCC(N)=O)NC(=O)[C@H](C)NC(=O)[C@H](CCCCNC(=O)COCCOCCNC(=O)COCCOCCNC(=O)CC[C@H](NC(=O)CCCCCCCCCCCCCCCCCCC(=O)O)C(=O)O)NC(=O)[C@H](CCCCN)NC(=O)[C@H](CC(=O)O)NC(=O)[C@H](CC(C)C)NC(=O)[C@H](CC(C)C)NC(=O)[C@@H](NC(=O)[C@H](CO)NC(=O)[C@H](Cc1ccc(O)cc1)NC(=O)[C@H](CC(=O)O)NC(=O)[C@H](CO)NC(=O)[C@@H](NC(=O)[C@](C)(Cc1ccccc1F)NC(=O)[C@@H](NC(=O)CNC(=O)[C@H](CCC(N)=O)NC(=O)C(C)(C)NC(=O)[C@@H](N)Cc1ccc(O)cc1)[C@@H](C)O)[C@@H](C)O)[C@@H](C)CC)C(=O)N[C@@H](CCC(=O)O)C(=O)N[C@@H](Cc1ccc(O)cc1)C(=O)N[C@@H](CC(C)C)C(=O)N[C@@H](CC(C)C)C(=O)N[C@@H](CCC(=O)O)C(=O)NCC(=O)NCC(=O)N1CCC[C@H]1C(=O)N[C@@H](CO)C(=O)N[C@@H](CO)C(=O)NCC(=O)N[C@@H](C)C(=O)N1CCC[C@H]1C(=O)N1CCC[C@H]1C(=O)N1CCC[C@H]1C(=O)N[C@@H](CO)C(N)=O` [Example 385], the concentration for a half-maximal effect (EC50) on hGIPR [1] turned out to be 4.03 nM; at hGLP-1R [2], 86.1 nM; at human GcgR it was 700 nM; on hGIPR [3] (setting [5]) it was 0.0141 nM; at hGLP-1R [4] (setting [5]), 0.235 nM; at hGcgR (setting [5]), 1 nM.
Take `CC[C@H](C)[C@H](NC(=O)[C@H](Cc1ccccc1)NC(=O)[C@H](C)NC(=O)C(C)(C)NC(=O)[C@H](CCC(N)=O)NC(=O)[C@H](C)NC(=O)[C@H](CCCCNC(=O)COCCOCCNC(=O)COCCOCCNC(=O)CC[C@H](NC(=O)CCCCCCCCCCCCCCCCCCC(=O)O)C(=O)O)NC(=O)[C@H](CCCCN)NC(=O)[C@H](CC(=O)O)NC(=O)[C@H](CC(C)C)NC(=O)[C@H](CC(C)C)NC(=O)[C@@H](NC(=O)[C@H](CO)NC(=O)[C@H](Cc1ccc(O)cc1)NC(=O)[C@H](CC(=O)O)NC(=O)[C@H](CO)NC(=O)[C@@H](NC(=O)[C@](C)(Cc1ccccc1F)NC(=O)[C@@H](NC(=O)CNC(=O)[C@H](CCC(N)=O)NC(=O)C(C)(C)NC(=O)[C@@H](N)Cc1ccc(O)cc1)[C@@H](C)O)[C@@H](C)O)[C@@H](C)CC)C(=O)N[C@@H](CCC(=O)O)C(=O)N[C@@H](Cc1ccc(O)cc1)C(=O)N[C@@H](CC(C)C)C(=O)N[C@@H](CC(C)C)C(=O)N[C@@H](CCC(=O)O)C(=O)NCC(=O)NCC(=O)N1CCC[C@H]1C(=O)N[C@@H](CO)C(=O)N[C@@H](CO)C(=O)NCC(=O)N[C@@H](C)C(=O)N1CCC[C@H]1C(=O)N1CCC[C@H]1C(=O)N1CCC[C@H]1C(=O)N[C@@H](CCC(=O)O)C(N)=O` [Example 386] (H-Y[Aib]QGT[αMePhe(2-F)]TSDYSILLDKK([AEEA-AEEA-γGlu-C20 diacid])AQ[Aib]AFIEYLLEGGPSSGAPPPE-NH2): the EC50 was 5.62 nM at hGIPR [1]; 98.6 nM on hGLP-1R [2]; 734 nM on human GcgR; 0.0156 nM on hGIPR [3] (setting [5]); 0.278 nM at hGLP-1R [4] (setting [5]); 1.7 nM on hGcgR (setting [5]).
Consider `CC[C@H](C)[C@H](NC(=O)[C@H](Cc1ccccc1)NC(=O)[C@H](CCCN)NC(=O)C(C)(C)NC(=O)[C@H](CCC(N)=O)NC(=O)[C@H](C)NC(=O)[C@H](CCCCNC(=O)COCCOCCNC(=O)CC[C@H](NC(=O)CCCCCCCCCCCCCCCCC(=O)O)C(=O)O)NC(=O)[C@H](CCCN)NC(=O)[C@H](CC(=O)O)NC(=O)[C@H](CC(C)C)NC(=O)[C@](C)(CC(C)C)NC(=O)[C@H](CO)NC(=O)[C@](C)(CO)NC(=O)[C@H](Cc1ccc(O)cc1)NC(=O)[C@H](CC(=O)O)NC(=O)[C@H](CO)NC(=O)[C@@H](NC(=O)[C@](C)(Cc1ccccc1)NC(=O)[C@@H](NC(=O)CNC(=O)[C@H](CCC(N)=O)NC(=O)C(C)(C)NC(=O)[C@@H](N)Cc1ccc(O)cc1)[C@@H](C)O)[C@@H](C)O)C(=O)N[C@H](CCC(=O)O)C(=O)N[C@@](C)(Cc1ccc(O)cc1)C(=O)N[C@@H](CC(C)C)C(=O)N[C@@H](CC(C)C)C(=O)N[C@@H](CCC(=O)O)C(=O)NCC(=O)NCC(=O)N1CCC[C@H]1C(=O)N[C@@H](CO)C(=O)N[C@@H](CO)C(=O)NCC(=O)N[C@@H](CCC(=O)O)C(=O)N1CCC[C@H]1C(=O)N1CCC[C@H]1C(=O)N1CCC[C@H]1C(=O)N[C@@H](CCC(=O)O)C(N)=O` [Example 389] (H-Y[Aib]QGT[αMeF]TSDY[αMeS]S[αMeL]LD[Orn]K([AEEA-γGlu-C18 diacid])AQ[Aib][Orn]FI[dE][αMeY]LLEGGPSSGEPPPE-NH2), for which the concentration for a half-maximal effect (EC50) on hGIPR [1] turned out to be 18.3 nM; on hGLP-1R [2] it was 18.9 nM; on human GcgR it was 889 nM; on hGIPR [3] (setting [5]), 0.0354 nM; on hGLP-1R [4] (setting [5]) it was 0.134 nM; at hGcgR (setting [5]) it was 4.03 nM.
Turning to `CC[C@H](C)[C@H](NC(=O)[C@H](Cc1ccccc1)NC(=O)[C@H](CCCN)NC(=O)C(C)(C)NC(=O)[C@H](CCC(N)=O)NC(=O)[C@H](C)NC(=O)[C@H](CCCCNC(=O)COCCOCCNC(=O)CC[C@H](NC(=O)CCCCCCCCCCCCCCCCC(=O)O)C(=O)O)NC(=O)[C@H](CCCN)NC(=O)[C@H](CC(=O)O)NC(=O)[C@H](CC(C)C)NC(=O)[C@H](CC(C)C)NC(=O)[C@H](CO)NC(=O)[C@](C)(CO)NC(=O)[C@H](Cc1ccc(O)cc1)NC(=O)[C@H](CC(=O)O)NC(=O)[C@H](CO)NC(=O)[C@@H](NC(=O)[C@](C)(Cc1ccccc1)NC(=O)[C@@H](NC(=O)CNC(=O)[C@H](CCC(N)=O)NC(=O)C(C)(C)NC(=O)[C@@H](N)Cc1ccc(O)cc1)[C@@H](C)O)[C@@H](C)O)C(=O)N[C@H](CCC(=O)O)C(=O)N[C@@](C)(Cc1ccc(O)cc1)C(=O)N[C@@H](CC(C)C)C(=O)N[C@@H](CC(C)C)C(=O)N[C@@H](CCC(=O)O)C(=O)NCC(=O)NCC(=O)N1CCC[C@H]1C(=O)N[C@@H](CO)C(=O)N[C@@H](CO)C(=O)NCC(=O)N[C@@H](CCC(=O)O)C(=O)N1CCC[C@H]1C(=O)N1CCC[C@H]1C(=O)N1CCC[C@H]1C(=O)N[C@@H](CCC(=O)O)C(N)=O` [Example 390] (H-Y[Aib]QGT[αMeF]TSDY[αMeS]SLLD[Orn]K([AEEA-γGlu-C18 diacid])AQ[Aib][Orn]FI[dE][αMeY]LLEGGPSSGEPPPE-NH2), the EC50 amounted to 37.8 nM at hGIPR [1]; 19.6 nM on hGLP-1R [2]; 549 nM on human GcgR; 0.122 nM at hGIPR [3] (setting [5]); 0.134 nM at hGLP-1R [4] (setting [5]); 3.08 nM at hGcgR (setting [5]).
Turning to `CC[C@H](C)[C@H](NC(=O)[C@H](Cc1ccccc1)NC(=O)[C@H](CCCN)NC(=O)C(C)(C)NC(=O)[C@H](CCC(N)=O)NC(=O)[C@H](C)NC(=O)[C@H](CCCCNC(=O)COCCOCCNC(=O)CC[C@H](NC(=O)CCCCCCCCCCCCCCCCC(=O)O)C(=O)O)NC(=O)[C@H](CCCN)NC(=O)[C@H](CC(=O)O)NC(=O)[C@H](CC(C)C)NC(=O)[C@](C)(CC(C)C)NC(=O)[C@@H](NC(=O)[C@](C)(CO)NC(=O)[C@H](Cc1ccc(O)cc1)NC(=O)[C@H](CC(=O)O)NC(=O)[C@H](CO)NC(=O)[C@@H](NC(=O)[C@](C)(Cc1ccccc1)NC(=O)[C@@H](NC(=O)CNC(=O)[C@H](CCC(N)=O)NC(=O)C(C)(C)NC(=O)[C@@H](N)Cc1ccc(O)cc1)[C@@H](C)O)[C@@H](C)O)[C@@H](C)CC)C(=O)N[C@H](CCC(=O)O)C(=O)N[C@@H](Cc1ccc(O)cc1)C(=O)N[C@@H](CC(C)C)C(=O)N[C@@H](CC(C)C)C(=O)N[C@@H](CCC(=O)O)C(=O)NCC(=O)NCC(=O)N1CCC[C@H]1C(=O)N[C@@H](CO)C(=O)N[C@@H](CO)C(=O)NCC(=O)N[C@@H](CCC(=O)O)C(=O)N1CCC[C@H]1C(=O)N1CCC[C@H]1C(=O)N1CCC[C@H]1C(=O)N[C@@H](CCC(=O)O)C(N)=O` [Example 391] (H-Y[Aib]QGT[αMeF]TSDY[αMeS]I[αMeL]LD[Orn]K([AEEA-γGlu-C18 diacid])AQ[Aib][Orn]FI[dE]YLLEGGPSSGEPPPE-NH2), the EC50 on hGIPR [1] was 11.5 nM; on hGLP-1R [2], 34.4 nM; on human GcgR it was 808 nM; at hGIPR [3] it was 0.0298 nM; on hGLP-1R [4], 0.199 nM; at hGcgR, 3.04 nM.
